Measured values: US20260152487A1 (Sitryx Therapeutics Limited, priority 2021, published 2026)

Assays:
[1] = molecular target: T1, recombinant human PKM2 (Homo sapiens, UniProt P14618); experiment: Human PKM2 activation assay (Kinase-Glo Plus luminescent detection of generated ATP); assay type: biochemical; details: for Emax: percentage activation normalised to DMSO vehicle (LOW) and 5 μM TEPP-46 (HIGH), read-out: hPKM2 Emax; for EC50: recombinant human PKM2 activation, 4-parameter logistic fit, read-out: hPKM2 EC50
T1 construct: His (N); purchased R&D Systems
T1 sequence (P14618 2-531 limits assumed): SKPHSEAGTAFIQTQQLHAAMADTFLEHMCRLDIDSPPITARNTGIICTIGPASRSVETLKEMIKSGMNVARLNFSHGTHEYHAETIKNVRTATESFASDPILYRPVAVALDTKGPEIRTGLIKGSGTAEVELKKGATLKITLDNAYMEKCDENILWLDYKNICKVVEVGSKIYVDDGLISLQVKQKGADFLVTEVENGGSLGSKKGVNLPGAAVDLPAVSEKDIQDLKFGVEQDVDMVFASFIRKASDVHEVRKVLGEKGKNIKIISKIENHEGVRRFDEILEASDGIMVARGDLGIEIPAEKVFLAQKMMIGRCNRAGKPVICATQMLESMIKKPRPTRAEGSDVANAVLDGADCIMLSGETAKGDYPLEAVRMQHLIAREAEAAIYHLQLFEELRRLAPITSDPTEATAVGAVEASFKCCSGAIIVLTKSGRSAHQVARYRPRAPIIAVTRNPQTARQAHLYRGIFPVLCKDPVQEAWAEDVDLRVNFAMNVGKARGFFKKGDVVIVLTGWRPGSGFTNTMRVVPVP
Summary of the method: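 N-His-tagged recombinant hPKM2 ([…]) with PEP and ADP was incubated with compound for 60 min at 26 °C, shaking, in 50 mM imidazole, 50 mM KCl, 7 mM MgCl2, 0.01% Tween20, 0.05% BSA, pH 7.2. ATP produced was read by Kinase-Glo Plus luminescence after 15 min.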

[2] = tested on: A549 cells; experiment: A549 cell proliferation in low-serine medium (CellTiter-Glo 2.0 viable cell number); assay type: cell-based; details: Homo sapiens, 72 h, 3 days, Assay Medium with 20 μM L-serine
Method: The effect of compounds of Formula (Ia) on A549 cell proliferation in low-serine medium was assessed using a luminescence assay of viable cell number (CellTiter-Glo® 2.0, Promega) duplexed with a fluorescent cytotoxicity assessment (CelITox™ Green, Promega). Cell culture reagents were from ThermoFisher unless specified otherwise. Assay reagents were from Sigma-Aldrich unless specified otherwise. Test Compounds were prepared as 10 mM DMSO stocks and dilution series prepared in DMSO for direct dilution into culture medium.
Cells were passaged every 3-4 days at 80-90% confluence. The cell monolayer was washed twice with room-temperature Ca^2+/Mg-free PBS and 4 ml room-temperature trypsin-EDTA added to the flask. After 5 minutes' incubation (37° C., 5% CO2) to detach cells, trypsin was quenched with 13 ml warmed complete growth medium and the cells harvested and diluted to 2.4×10^4 cells/ml for dispensing into 384-well clear-bottom black-walled plates (600 cells/well).
Following overnight incubation, growth medium was aspirated from each well and the cells washed twice with Assay Medium comprising Basal Medium Eagle supplemented with 3% heat-inactivated dialysed FBS plus 2 mM L-glutamine plus 20 μM L-serine (Sigma-Aldrich). After aspiration of the final wash medium, Assay Medium containing Test Compound was added to each well. DMSO vehicle controls were included on each plate.
Cells were incubated for 3 days in a humidified incubator (37° C., 5% CO2) at which point CelITox™ Green and CellTiter-Glo® reagents were prepared according to the manufacturer's instructions. Triton-X was added to HIGH wells for cytotoxicity determination and the plate incubated for 30 minutes (20° C., ambient humidity and pCO2). CelITox™ Green reagent was added to each well and the plate covered, placed on an orbital shaker @450 rpm for 2 minutes, and incubated in the dark for 15 minutes (20° C., ambient humidity and pCO2). Endpoint fluorescence was measured using a plate reader (PHERAstar® FSX, BMG Labtech).
Following cytotoxicity determination, CellTiter-Glo® reagent was added to each well and the plate placed on an orbital shaker @450 rpm for 2 minutes to lyse cells. Plates were incubated in the dark for 15-30 minutes (20° C., ambient humidity and pCO2) prior to endpoint luminescence measurement (PHERAstar® FSX, BMG Labtech).
Proliferation was calculated by normalizing luminescence signals to LOW controls obtained from a parallel plate processed at the time of Test Compound challenge and HIGH (DMSO vehicle) wells from the compound plate. IC50 values were determined from a 4-parameter logistic fit of compound concentration-response curves.

Row | Emax [1] [%] | EC50 [1] [nM] | IC50 [2] [nM] | SMILES
1 | 101 | 59.7 | 1.9 | COc1ccc(S(=O)(=O)c2ccc3c(=O)n(Cc4cccc(OC)c4F)ncc3c2)cc1 [Example 52, 2-(2-fluoro-3-methoxybenzyl)-6-((4-methoxyphenyl)sulfonyl)phthalazin-1(2H)-one]
2 | 89.2 | 59.1 | 5.7 | COc1ccc(S(=O)(=O)c2ccc3c(=O)n(Cc4c(F)cc(OC)cc4F)ncc3c2)cc1 [Example 53, 2-(2,6-difluoro-4-methoxybenzyl)-6-((4-methoxyphenyl)sulfonyl)phthalazin-1(2H)-one]
3 | 109 | 55 | 2.3 | O=c1c2ccc(S(=O)(=O)c3ccccc3)cc2cnn1Cc1ccc2c(c1)OCO2 [Example 57, 2-(benzo[d][1,3]dioxol-5-ylmethyl)-6-(phenylsulfonyl)phthalazin-1(2H)-one]
4 | 88.6 | 477 | 41.8 | O=c1c2ccc(S(=O)(=O)c3ccccc3)cc2cnn1Cc1ccc2cn[nH]c2c1 [Example 58, 2-((1H-indazol-6-yl)methyl)-6-(phenylsulfonyl)phthalazin-1(2H)-one]
5 | 107 | 68.9 | 3.2 | COc1ccc(Cn2ncc3cc(S(=O)(=O)c4ccccc4)ccc3c2=O)nc1 [Example 59, 2-((5-methoxypyridin-2-yl)methyl)-6-(phenylsulfonyl)phthalazin-1(2H)-one]
6 | 67.2 | 564 | 15.8 | NC(=O)Cc1ccccc1Cn1ncc2cc(S(=O)(=O)c3ccccc3)ccc2c1=O [Example 61, 2-(2-((1-oxo-6-(phenylsulfonyl)phthalazin-2(1H)-yl)methyl)phenyl)acetamide]
7 | 89.5 | 38.7 | 2.5 | O=c1c2ccc(S(=O)(=O)c3ccccc3)cc2cnn1Cc1ccc(OC(F)F)nc1 [Example 62, 2-((6-(difluoromethoxy)pyridin-3-yl)methyl)-6-(phenylsulfonyl)phthalazin-1(2H)-one]
8 | 101 | 167 | 4.3 | O=c1c2ccc(S(=O)(=O)c3ccccc3)cc2cnn1Cc1ccccc1CCO [Example 63, 2-(2-(2-hydroxyethyl)benzyl)-6-(phenylsulfonyl)phthalazin-1(2H)-one]
9 | 96.4 | 45 | 2.1 | CC1Cc2cc(Cn3ncc4cc(S(=O)(=O)c5ccccc5)ccc4c3=O)ccc2O1 (stereo not drawn) [Example 64, 2-((2-methyl-2,3-dihydrobenzofuran-5-yl)methyl)-6-(phenylsulfonyl)phthalazin-1(2H)-one]
10 | 98.6 | 360 | 17.4 | O=c1c2ccc(S(=O)(=O)c3ccccc3)cc2cnn1Cc1cccnc1 [Example 65, 6-(phenylsulfonyl)-2-(pyridin-3-ylmethyl)phthalazin-1(2H)-one]
11 | 88.5 | 115 | 4.3 | NC(=O)c1ccccc1Cn1ncc2cc(S(=O)(=O)c3ccccc3)ccc2c1=O [Example 66, 2-((1-oxo-6-(phenylsulfonyl)phthalazin-2(1H)-yl)methyl)benzamide]
12 | 91.4 | 185 | 3.3 | COCC(c1ccccc1)n1ncc2cc(S(=O)(=O)c3ccccc3)ccc2c1=O (stereo not drawn) [Example 67, 2-(2-methoxy-1-phenylethyl)-6-(phenylsulfonyl)phthalazin-1(2H)-one]
13 | 102 | 115 | 14.1 | O=c1c2ccc(S(=O)(=O)c3ccccc3)cc2cnn1Cc1ccccc1 [Example 71, 2-benzyl-6-(phenylsulfonyl)phthalazin-1(2H)-one]
14 | 103 | 35.9 | 3.2 | COc1ccc(S(=O)(=O)c2ccc3c(=O)n(Cc4ccn(C)n4)ncc3c2)cc1 [Example 72, 6-((4-methoxyphenyl)sulfonyl)-2-((1-methyl-1H-pyrazol-3-yl)methyl)phthalazin-1(2H)-one]
15 | 91.2 | 218 | 38.7 | COc1ccc(C(C)n2ncc3cc(S(=O)(=O)c4ccccc4)ccc3c2=O)cn1 (stereo not drawn) [Example 74, 2-(1-(6-methoxypyridin-3-yl)ethyl)-6-(phenylsulfonyl)phthalazin-1(2H)-one]
16 | 101 | 105 | 4.1 | Cn1cc(Cl)c(Cn2ncc3cc(S(=O)(=O)c4ccccc4)ccc3c2=O)n1 [Example 76, 2-((4-chloro-1-methyl-1H-pyrazol-3-yl)methyl)-6-(phenylsulfonyl)phthalazin-1(2H)-one]
17 | 106 | 63 | 4 | Cc1nc(Cn2ncc3cc(S(=O)(=O)c4ccccc4)ccc3c2=O)cs1 [Example 77, 2-((2-methylthiazol-4-yl)methyl)-6-(phenylsulfonyl)phthalazin-1(2H)-one]
18 | 99 | 802 | 89.1 | O=c1c2ccc(S(=O)(=O)c3ccccc3)cc2cnn1C(F)(F)c1cccnc1 [Example 78, 2-(difluoro(pyridin-3-yl)methyl)-6-(phenylsulfonyl)phthalazin-1(2H)-one]
19 | 90.2 | 203 | 19.4 | COc1ccccc1Cn1ncc2cc(S(=O)(=O)c3ccccc3)ccc2c1=O [Example 79, 2-(2-methoxybenzyl)-6-(phenylsulfonyl)phthalazin-1(2H)-one]
20 | 98.9 | 49.8 | 6.7 | COc1cccc(Cn2ncc3cc(S(=O)(=O)c4ccccc4)ccc3c2=O)c1 [Example 81, 2-(3-methoxybenzyl)-6-(phenylsulfonyl)phthalazin-1(2H)-one]
21 | 87.4 | 80.9 | 3.5 | COCC(c1ccccc1)n1ncc2cc(S(=O)(=O)c3ccc(OC)cc3)ccc2c1=O (stereo not drawn) [Example 82, 2-(2-methoxy-1-phenylethyl)-6-((4-methoxyphenyl)sulfonyl)phthalazin-1(2H)-one]
22 | 116 | 95.4 | 9.9 | CC(C)n1ccc(Cn2ncc3cc(S(=O)(=O)c4ccccc4)ccc3c2=O)n1 [Example 95, 2-((1-isopropyl-1H-pyrazol-3-yl)methyl)-6-(phenylsulfonyl)phthalazin-1(2H)-one]
23 | 82 | 257 | 9 | COc1ccc(S(=O)(=O)c2ccc3c(=O)n(Cc4ccc(C)nc4O)ncc3c2)cc1 [Example 98, 2-((2-hydroxy-6-methylpyridin-3-yl)methyl)-6-(4-methoxyphenylsulfonyl)phthalazin-1(2H)-one]
24 | 107 | 138 | 4.6 | COc1ccc(S(=O)(=O)c2ccc3c(=O)n(Cc4c(C)ccnc4O)ncc3c2)cc1 [Example 99, 2-((2-hydroxy-4-methylpyridin-3-yl)methyl)-6-(4-methoxyphenylsulfonyl)phthalazin-1(2H)-one]
25 | 70.8 | 677 | 73.9 | COc1ccc(S(=O)(=O)c2ccc3c(=O)n(Cc4cc(F)cnc4O)ncc3c2)cc1 [Example 100, 2-((5-fluoro-2-hydroxypyridin-3-yl)methyl)-6-(4-methoxyphenylsulfonyl)phthalazin-1(2H)-one]
26 | 74.5 | 240 | 354 | COc1ccc(S(=O)(=O)c2ccc3c(=O)n(Cc4cc(C(C)C)cnc4O)ncc3c2)cc1 [Example 101, 2-((2-hydroxy-5-isopropylpyridin-3-yl)methyl)-6-(4-methoxyphenylsulfonyl)phthalazin-1(2H)-one]
27 | 94.9 | 69.9 | 2.2 | COc1ccc(S(=O)(=O)c2ccc3c(=O)n(Cc4c(Cl)ccnc4O)ncc3c2)cc1 [Example 102, 2-((4-chloro-2-hydroxypyridin-3-yl)methyl)-6-(4-methoxyphenylsulfonyl) phthalazin-1(2H)-one]
28 | 98.8 | 41.3 | 0.7 | COc1ccc(S(=O)(=O)c2ccc3c(=O)n(Cc4c(F)ccnc4O)ncc3c2)cc1 [Example 103, 2-((4-fluoro-2-hydroxypyridin-3-yl)methyl)-6-(4-methoxyphenylsulfonyl) phthalazin-1(2H)-one]
